# Values of other authors as cited in patent US5266487A, “Apparatus for the treatment of lignocellulosic materials” (Knobbe, Martens, Olson & Bear, priority 1992, dated 1993).
# Where two headings read alike, the source gives them in different places.
# Biological target: alcohol oxidase (methanol oxidase), preferred enzyme from Hansenula polymorpha ATCC 34438 (Pichia angusta, UniProt P04841)
# Sequence (P04841 whole entry): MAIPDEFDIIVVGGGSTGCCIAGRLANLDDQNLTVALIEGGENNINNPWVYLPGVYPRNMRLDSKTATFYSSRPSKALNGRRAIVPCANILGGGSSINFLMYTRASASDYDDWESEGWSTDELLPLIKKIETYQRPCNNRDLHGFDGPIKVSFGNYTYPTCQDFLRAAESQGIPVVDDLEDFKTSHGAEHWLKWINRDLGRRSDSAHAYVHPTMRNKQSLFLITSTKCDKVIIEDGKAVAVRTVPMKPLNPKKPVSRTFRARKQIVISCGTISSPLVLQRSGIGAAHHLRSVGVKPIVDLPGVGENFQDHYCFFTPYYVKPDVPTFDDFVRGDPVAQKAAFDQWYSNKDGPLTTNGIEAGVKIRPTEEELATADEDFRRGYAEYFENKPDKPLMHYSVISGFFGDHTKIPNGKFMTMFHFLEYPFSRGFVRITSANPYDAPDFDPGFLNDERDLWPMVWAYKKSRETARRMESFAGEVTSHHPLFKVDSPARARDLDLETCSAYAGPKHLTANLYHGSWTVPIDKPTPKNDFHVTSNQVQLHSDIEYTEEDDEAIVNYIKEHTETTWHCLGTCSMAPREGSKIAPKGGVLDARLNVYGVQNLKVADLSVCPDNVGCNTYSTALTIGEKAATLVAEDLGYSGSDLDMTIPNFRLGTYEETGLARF
Structure (SMILES),"Km (read-out: Km methanol, see Van Dijken et al., Arch. Microbiol. 111, 137 (1976)) [µM]","Km (read-out: Km oxygen, see Van Dijken et al., Arch. Microbiol. 111, 137 (1976)) [µM]"
CO [methanol],2000,–
O=O [oxygen],–,400
